Three compounds from PMC7829762, “Characterization of a Novel Laccase LAC-Yang1 from White-Rot Fungus Pleurotus ostreatus Strain Yang1 with a Strong Ability to Degrade and Detoxify Chlorophenols” (Molecules, 2021) can be followed below.

The experiment relates to T1, LAC-Yang1.
T1 construct: native enzyme purified from culture supernatant (Cu2+ and syringic acid induced; ammonium sulfate, DEAE, Phenyl-6FF); only laccase band secreted by this strain
Kind of experiment: absorbance assay, Michaelis-Menten non-linear regression. The conditions noted are these: 50 mM acetate buffer pH 5.0, 30 °C, free enzyme. In kind it is biochemical, Pleurotus ostreatus. The source says:
absorbance assay, Michaelis-Menten non-linear regression on LAC-Yang1

Consider 2,6-Dimethylphenol [2,6-DMP], for which the Km (470 nm, compound identity doubtful: paper spells 2,6-DMP as 2,6-Dimethylphenol, but 470 nm read-out is usual for 2,6-dimethoxyphenol) worked out at 120 ± 30 µM.

For the compound `CCn1c(=NN=c2sc3cc(S(=O)(=O)O)ccc3n2CC)sc2cc(S(=O)(=O)O)ccc21` [ABTS, 2,2′-azino-bis-(3-ethylbenzothiazoline-6-sulfonic acid)], the Km (420 nm) was found to be 150 ± 50 µM.

With `COc1ccccc1O` [guaiacol], the Km (465 nm) amounted to 810 ± 150 µM.
